# Assay results reported in patent US20130252930A1 (BIOMARIN PHARMACEUTICAL INC., priority 2010, published 2013).
# Like-named read-outs stand apart in the source and are kept apart here.
# How the values were obtained:
# [1] = target: T1, CYP17 (human testicular microsome) (Homo sapiens, UniProt P05093); experiment: CYP17 enzymatic assay (% inhibition at 1 nM) (Biological Example 12); format: biochemical; details: compound at 1 nM
# T1 construct: using microsomal fraction from human testis (Celsis Cat #S00110) as the enzyme source; tissue Celsis S00110; host or cells: human testis microsomal fraction
# T1 sequence (P05093 1-508): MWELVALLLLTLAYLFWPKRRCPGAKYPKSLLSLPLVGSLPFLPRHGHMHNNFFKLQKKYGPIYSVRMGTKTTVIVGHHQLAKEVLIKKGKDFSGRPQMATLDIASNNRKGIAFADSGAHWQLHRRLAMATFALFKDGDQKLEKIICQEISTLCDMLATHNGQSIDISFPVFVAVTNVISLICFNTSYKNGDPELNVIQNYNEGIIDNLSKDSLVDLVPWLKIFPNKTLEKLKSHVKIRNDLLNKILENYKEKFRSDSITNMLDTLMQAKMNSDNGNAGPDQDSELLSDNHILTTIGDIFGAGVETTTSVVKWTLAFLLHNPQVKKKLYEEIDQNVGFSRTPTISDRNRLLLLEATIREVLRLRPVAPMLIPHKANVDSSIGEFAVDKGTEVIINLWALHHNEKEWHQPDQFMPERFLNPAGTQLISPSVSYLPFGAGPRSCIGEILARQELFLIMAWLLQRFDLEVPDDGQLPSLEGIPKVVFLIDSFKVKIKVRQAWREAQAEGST
# [2] = target: T1, CYP17 (human testicular microsome); experiment: CYP17 enzymatic assay (IC50) (Biological Example 4); format: biochemical; details: human testicular microsome; read-out: Biological Example No. 4: CYP17 enzymatic assay IC50
# [3] = target: T2, Cyp21 enzyme (Human HEK 293-Cyp21 stable transfected cells) (Homo sapiens, UniProt P08686); experiment: CYP21-HEK293 enzymatic assay (IC50) (Biological Example 11); format: cell-based; details: HEK 293-Cyp21 cells
# T2 construct: expressed in transfected cells
# T2 sequence (P08686 1-495): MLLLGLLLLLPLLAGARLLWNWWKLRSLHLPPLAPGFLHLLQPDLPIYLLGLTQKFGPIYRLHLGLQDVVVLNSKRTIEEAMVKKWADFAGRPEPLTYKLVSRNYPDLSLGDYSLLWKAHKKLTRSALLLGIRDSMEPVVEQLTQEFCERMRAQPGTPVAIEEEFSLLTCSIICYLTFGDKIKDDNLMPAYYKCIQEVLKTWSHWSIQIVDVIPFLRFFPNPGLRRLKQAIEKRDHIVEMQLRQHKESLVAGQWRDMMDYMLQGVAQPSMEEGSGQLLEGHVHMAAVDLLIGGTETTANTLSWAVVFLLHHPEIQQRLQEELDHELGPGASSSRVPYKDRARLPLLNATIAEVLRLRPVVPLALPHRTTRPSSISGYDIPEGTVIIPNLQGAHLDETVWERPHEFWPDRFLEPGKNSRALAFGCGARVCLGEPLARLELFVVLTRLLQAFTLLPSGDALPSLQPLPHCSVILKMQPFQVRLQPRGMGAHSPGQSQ
# [4] = read-out: Biological Example No. 12: CYP17 enzymatic assay % inhibition at 1 nM
# [5] = read-out: Biological Example No. 11: CYP21-HEK293 enzymatic assay IC50
# [6] = read-out: CYP17 enzymatic assay % inhibition at 1 nM (Biological Example No. 12)
# [7] = read-out: CYP21-HEK293 enzymatic assay IC50 (Biological Example No. 11)
Structure (SMILES),"inhibition at 0.001 µM [1, 4] [%]",IC50 [2] [nM],"IC50 [3, 5] [nM]","inhibition at 0.001 µM [1, 6] [%]","IC50 [3, 7] [nM]"
"C[C@]12CCC3C(CCC4=CC(=O)NCC[C@@]43C)C1=CC=C2c1cncc(C(F)F)c1 (stereo partly drawn) [Compound 390, (5aR,7aS)-8-(5-(difluoromethyl)pyridin-3-yl)-5a,7a-dimethyl-3,4,5,5a,5b,6,7,7a,11,12-decahydrocyclopenta[5,6]naphtho[1,2-d]azepin-2(10bH)-one]",> 50,< 11,> 1000,–,–
"CCC1CC2C(CC[C@]3(C)C(c4cncc(F)c4)=CCC23)[C@@]2(C)CCC(=O)C=C12 (stereo partly drawn) [Compound 333, (10R,13S)-6-ethyl-17-(5-fluoropyridin-3-yl)-10,13-dimethyl-6,7,8,9,10,11,12,13,14,15-decahydro-1H-cyclopenta[a]phenanthren-3(2H)-one]",< 10,–,> 1000,–,–
"CC1CC2C3=CC=C(c4ccc(F)nc4)[C@@]3(C)CCC2[C@@]2(C)CCNC(=O)C=C12 (stereo partly drawn) [Compound 385, (5aR,7aS)-8-(6-fluoropyridin-3-yl)-5a,7a,12-trimethyl-3,4,5,5a,5b,6,7,7a,11,12-decahydrocyclopenta[5,6]naphtho[1,2-d]azepin-2(10bH)-one]",10 to 50,–,> 1000,–,–
"C[C@]12CCC(=O)C=C1C(n1nccn1)CC1C2CC[C@]2(C)C(c3cccnc3)=CCC12 (stereo partly drawn) [Compound 336, (10R,13S)-10,13-dimethyl-17-(pyridin-3-yl)-6-(2H-1,2,3-triazol-2-yl)-6,7,8,9,10,11,12,13,14,15-decahydro-1H-cyclopenta[a]phenanthren-3(2H)-one]",< 10,–,> 1000,–,–
"CC1CC2C(CC[C@]3(C)C(c4cccnc4)=CCC23)[C@@]2(C)C=CC(=NO)C=C12 (stereo partly drawn) [Compound 367, (10R,13S)-6,10,13-trimethyl-17-(pyridin-3-yl)-6,7,8,9,10,11,12,13,14,15-decahydro-3H-cyclopenta[a]phenanthren-3-one oxime]",10 to 50,–,> 1000,–,–
"C[C@]12C=CC(=NO)C=C1C1(CC1)C[C@@H]1[C@@H]2CC[C@]2(C)C(c3cccnc3)=CC[C@@H]12 [Compound 365, (6cR,8aS)-10,13-dimethyl-17-(pyridin-3-yl)-7,8,9,11,12,13,14,15-octahydrospiro[cyclopenta[a]phenanthrene-6,1′-cyclopropan]-3(10H)-one oxime]",10 to 50,–,> 100,–,–
"CC1=C2CCC3C4=CC=C(c5cccnc5)[C@@]4(C)CCC3[C@@]2(C)CCC1=O (stereo partly drawn) [Compound 296, (10R,13S)-4,10,13-trimethyl-17-(pyridin-3-yl)-6,7,8,9,10,11,12,13-octahydro-1H-cyclopenta[a]phenanthren-3(2H)-one]",–,–,–,> 50,> 100
"C[C@]12CCC(=O)CC1C(=O)CC1C2CC[C@]2(C)C(c3cncc(F)c3)=CCC12 (stereo partly drawn) [Compound 418, (10R,13S)-17-(5-fluoropyridin-3-yl)-10,13-dimethyl-4,5,7,8,9,11,12,13,14,15-decahydro-1H-cyclopenta[a]phenanthrene-3,6(2H,10H)-dione]",> 50,< 11,> 1000,–,–
"CC1CC2C3=CC=C(c4cncc(C(F)F)c4)[C@@]3(C)CCC2[C@@]2(C)CCNC(=O)C=C12 (stereo partly drawn) [Compound 391, (5aR,7aS)-8-(5-(difluoromethyl)pyridin-3-yl)-5a,7a,12-trimethyl-3,4,5,5a,5b,6,7,7a,11,12-decahydrocyclopenta[5,6]naphtho[1,2-d]azepin-2(10bH)-one]",< 10,–,> 1000,–,–
"C[C@]12CCC(=O)C=C1C(n1ccnn1)CC1C2CC[C@]2(C)C(c3cccnc3)=CCC12 (stereo partly drawn) [Compound 335, (10R,13S)-10,13-dimethyl-17-(pyridin-3-yl)-6-(1H-1,2,3-triazol-1-yl)-6,7,8,9,10,11,12,13,14,15-decahydro-1H-cyclopenta[a]phenanthren-3(2H)-one]",10 to 50,–,> 1000,–,–
"C[C@]12CC[C@H]3[C@@H](CC(c4ccccc4)C4=CC(=O)CC[C@@]43C)C1=CC=C2c1cccnc1 (stereo partly drawn) [Compound 344, (10R,13S)-10,13-dimethyl-6-phenyl-17-(pyridin-3-yl)-6,7,8,9,10,11,12,13-octahydro-1H-cyclopenta[a]phenanthren-3(2H)-one]",10 to 50,–,> 1000,–,–
"CC1CC2C3=CC=C(c4cncc(C(F)F)c4)[C@@]3(C)CCC2[C@@]2(C)CCC(=O)C=C12 (stereo partly drawn) [Compound 328, (10R,13S)-17-(5-(difluoromethyl)pyridin-3-yl)-6,10,13-trimethyl-6,7,8,9,10,11,12,13-octahydro-1H-cyclopenta[a]phenanthren-3(2H)-one]",< 10,–,> 1000,–,–
"Cc1cnc(F)c(C2=CCC3C4CCC5=CC(=O)CC[C@]5(C)C4CC[C@]23C)c1 (stereo partly drawn) [Compound 356, (10R,13S)-17-(2-fluoro-5-methylpyridin-3-yl)-10,13-dimethyl-6,7,8,9,10,11,12,13,14,15-decahydro-1H-cyclopenta[a]phenanthren-3(2H)-one]",10 to 50,–,> 1000,–,–
"C[C@]12CCC(=O)C=C1C(c1ccccc1)CC1C2CC[C@]2(C)C(c3cccnc3)=CCC12 (stereo partly drawn) [Compound 338, (10R,13S)-10,13-dimethyl-6-phenyl-17-(pyridin-3-yl)-6,7,8,9,10,11,12,13,14,15-decahydro-1H-cyclopenta[a]phenanthren-3(2H)-one]",< 10,–,> 1000,–,–
"C[C@]12CC[C@H]3[C@@H](CC(CO)C4=CC(=O)CC[C@@]43C)C1=CC=C2c1cccnc1 (stereo partly drawn) [Compound 340, (10R,13S)-6-(hydroxymethyl)-10,13-dimethyl-17-(pyridin-3-yl)-6,7,8,9,10,11,12,13-octahydro-1H-cyclopenta[a]phenanthren-3(2H)-one]",> 50,< 11,> 100,–,–
"CC1CC2C(CC[C@]3(C)C(c4cncc(C(F)F)c4)=CCC23)[C@@]2(C)CCC(=O)C=C12 (stereo partly drawn) [Compound 341, (10R,13S)-17-(5-(difluoromethyl)pyridin-3-yl)-6,10,13-trimethyl-6,7,8,9,10,11,12,13,14,15-decahydro-1H-cyclopenta[a]phenanthren-3(2H)-one]",10 to 50,–,> 1000,–,–
"C[C@]12CCC(=O)C=C1C(=O)CC1C2CC[C@]2(C)C(c3cncc(F)c3)=CCC12 (stereo partly drawn) [Compound 417, (10R,13S)-17-(5-fluoropyridin-3-yl)-10,13-dimethyl-7,8,9,11,12,13,14,15-octahydro-1H-cyclopenta[a]phenanthrene-3,6(2H,10H)-dione]",> 50,< 11,> 1000,–,–
"Cc1cccc(C)c1C(=O)O[C@@H]1CC[C@@]2(C)C(=CCC3C4=CC=C(c5cccnc5)[C@@]4(C)CCC32)C1 (stereo partly drawn) [Compound 198, (3R,10R,13S)-10,13-dimethyl-17-(pyridin-3-yl)-2,3,4,7,8,9,10,11,12,13-decahydro-1H-cyclopenta[a]phenanthren-3-yl 2,6-dimethylbenzoate]",–,–,–,< 10,> 1000
"CC1C(=O)CC[C@@]2(C)C1CC[C@@H]1[C@@H]2CC[C@]2(C)C(c3cccnc3)=CC[C@@H]12 (stereo partly drawn) [Compound 303, (10R,13S)-4,10,13-trimethyl-17-(pyridin-3-yl)-4,5,6,7,8,9,10,11,12,13,14,15-dodecahydro-1H-cyclopenta[a]phenanthren-3(2H)-one]",10 to 50,–,> 1000,–,–
"CC1C[C@@H]2[C@H](CC[C@]3(C)C(c4cncc(F)c4)=CC[C@@H]23)[C@@]2(C)C=CC(=O)C=C12 (stereo partly drawn) [Compound 345, (10R,13S)-17-(5-fluoropyridin-3-yl)-6,10,13-trimethyl-6,7,8,9,10,11,12,13,14,15-decahydro-3H-cyclopenta[a]phenanthren-3-one]",> 50,< 11,10 to 100,–,–
